For experiment [1], the target named is T1, human recombinant serotonin 5-HT2A receptor (Homo sapiens, UniProt P28223).
T1 construct: purchased PerkinElmer Life and Analytical Sciences, USA; host or cells: CHO-K1 cells
The experiment is described as follows: Binding affinity for serotonin 5-HT2A receptor ([3H]Ketanserin). The method, then: (§1) Receptor binding affinities of the compounds for serotonin receptors were measured by the method described in the literature (see [Park W K et al., Pharmacol Biochem Behav., 82(2), 361-372 (2005)].
For serotonin 5-HT2A binding, an aliquot of human recombinant serotonin 5-HT2A receptor (PerkinElmer Life and Analytical Sciences, USA) expressed in CHO-K1 cells (5 μg/well) and 1 nM [^3H]Ketanserin (PerkinElmer) were used in the presence of mianserin (20 μM) as a nonspecific. The reaction mixture was incubated for 60 min […] 50 mM Tris-HCl (pH 7.4) buffer containing 4 mM CaCl2 and 0.1% ascorbic acid, and harvested through filtermate A glass fiber filter (Wallac, Finland) presoaked in 0.5% polyethyleneimine (PEI) by microbeta filtermate-96 harvester (PerkinElmer) to terminate the reaction, and then washed with ice cold 50 mM Tris-HCl buffer solution (pH 7.4). The filter was then covered with MeltiLex, sealed in a sample bag, dried in an oven. The radioactivity retained in the filter was finally counted using MicroBeta Plus (Wallac).
(§2) The binding affinity (IC50) of a compound for the receptor was calculated by computerized nonlinear regression analysis (GraphPad Prism Program, San Diego, USA) using 7-8 varied concentrations of the compound run in duplicate tubes.

The target in experiment [2] is T2, human serotonin transporter (Homo sapiens, UniProt P31645).
T2 construct: purchased PerkinElmer; host or cells: HEK-293 cells
Briefly: Binding affinity for serotonin transporter ([3H]Imipramine). The procedure: For serotonin transporter binding assays, a reaction mixture with a final volume of 0.25 ml was prepared by mixing a test compound, human serotonin transporter membrane expressed in HEK-293 cells (PerkinElmer, 5 μg/well), [^3H] Imipramine (PerkinElmer, 2 nM) and 50 mM Tris-HCl (pH 7.4) buffer containing 120 mM NaCl and 5 mM KCl. The reaction mixture was incubated for 30 min at 27, and harvested through filtermate A glass fiber filter presoaked in 0.5% PEI with ice cold 50 mM Tris-HCl buffer (pH 7.4) containing 0.9% NaCl.

The target in experiment [3] is T3, human recombinant 5-HT2C receptor (Homo sapiens, UniProt P28335).
T3 construct: purchased PerkinElmer
T3 sequence (P28335 33-458): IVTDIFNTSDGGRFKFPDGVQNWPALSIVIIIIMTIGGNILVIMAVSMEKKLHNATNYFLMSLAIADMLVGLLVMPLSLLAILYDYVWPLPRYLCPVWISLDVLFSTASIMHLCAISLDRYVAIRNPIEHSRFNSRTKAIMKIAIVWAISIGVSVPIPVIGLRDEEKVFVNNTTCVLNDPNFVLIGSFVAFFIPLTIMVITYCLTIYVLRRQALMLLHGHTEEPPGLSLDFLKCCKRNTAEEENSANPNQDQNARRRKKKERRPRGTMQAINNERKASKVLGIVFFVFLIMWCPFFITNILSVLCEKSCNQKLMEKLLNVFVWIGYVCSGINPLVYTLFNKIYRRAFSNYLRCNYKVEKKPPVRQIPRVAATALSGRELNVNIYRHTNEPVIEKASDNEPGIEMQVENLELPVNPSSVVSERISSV
The experiment is described as follows: Binding affinity for serotonin 5-HT2C receptor ([3H]Mesulergine). The method, then: as §1, §2
For serotonin 5-HT2C binding, frozen membranes from stable CHO-K1 cell line expressing the human recombinant 5-HT2C receptor (PerkinElmer, 4 μg/well), [^3H]Mesulergine (Amersham, 1.3 nM) and test compounds were added into 50 mM Tris-HCl (pH 7.4) buffer containing 0.1% ascorbic acid and 4 mM CaCl2. Nonspecific binding was determined using 100 μM mianserin. The incubations were performed for 60 min at 27, and these were terminated by rapid filtration through filtermate A glass fiber filter presoaked in 0.5% PEI.

A further experiment relates to mice. The experiment is described as follows: Anti-depressants activity in forced swimming test. The following applies: 60 min before testing. Format: in vivo.
[4] abbreviates: CHO-K1 cells, 1 nM [3H]Ketanserin, read-out: binding affinity (IC50) 5-HT2A.
[5] abbreviates: HEK-293 membrane, 2 nM [3H]Imipramine, read-out: binding affinity Serotonin Transporter.
[6] abbreviates: CHO-K1 membranes, 1.3 nM [3H]Mesulergine, read-out: binding affinity (IC50) 5-HT2C.

Where two headings read alike, the source gives them in different places.

T2 sequence (P31645 whole entry): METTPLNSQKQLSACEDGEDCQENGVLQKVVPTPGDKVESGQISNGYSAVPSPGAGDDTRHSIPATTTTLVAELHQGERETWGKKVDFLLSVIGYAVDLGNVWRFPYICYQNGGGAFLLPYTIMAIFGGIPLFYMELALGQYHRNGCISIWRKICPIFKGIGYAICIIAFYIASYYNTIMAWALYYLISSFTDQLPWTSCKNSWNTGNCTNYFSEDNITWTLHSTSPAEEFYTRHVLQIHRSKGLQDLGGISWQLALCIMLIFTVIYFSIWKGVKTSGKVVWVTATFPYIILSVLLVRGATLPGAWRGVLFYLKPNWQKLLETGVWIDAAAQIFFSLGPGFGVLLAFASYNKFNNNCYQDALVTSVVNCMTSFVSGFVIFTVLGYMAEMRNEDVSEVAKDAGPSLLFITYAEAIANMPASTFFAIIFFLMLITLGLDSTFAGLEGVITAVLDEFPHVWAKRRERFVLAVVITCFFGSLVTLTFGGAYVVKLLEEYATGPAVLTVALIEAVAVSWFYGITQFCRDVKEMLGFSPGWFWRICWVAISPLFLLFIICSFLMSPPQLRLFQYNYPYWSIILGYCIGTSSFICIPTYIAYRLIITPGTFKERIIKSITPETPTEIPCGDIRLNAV
T1 sequence (P28223 whole entry): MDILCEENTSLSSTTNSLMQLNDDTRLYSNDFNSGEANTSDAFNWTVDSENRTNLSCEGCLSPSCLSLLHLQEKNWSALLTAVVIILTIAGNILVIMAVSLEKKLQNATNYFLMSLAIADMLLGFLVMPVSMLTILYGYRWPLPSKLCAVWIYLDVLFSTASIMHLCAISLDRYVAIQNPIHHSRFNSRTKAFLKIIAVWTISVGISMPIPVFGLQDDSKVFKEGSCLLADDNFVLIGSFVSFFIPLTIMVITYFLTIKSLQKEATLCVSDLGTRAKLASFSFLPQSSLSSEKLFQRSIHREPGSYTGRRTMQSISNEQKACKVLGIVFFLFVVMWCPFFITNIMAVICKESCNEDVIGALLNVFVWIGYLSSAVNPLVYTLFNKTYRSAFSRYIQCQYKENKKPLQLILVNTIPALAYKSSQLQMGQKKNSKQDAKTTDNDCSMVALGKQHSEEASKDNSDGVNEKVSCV
Description for mice: Each mouse was placed in a 25 cm glass cylinder (10 cm diameter) containing 15 cm of water maintained at 22±1, and was forced to swim for 10 min. 24 hours later, the mouse was replaced into the cylinder and the total duration of immobility was recorded during the last 5 min of the 6-min testing period. Mice are judged immobile when they float in an upright position and make only small movements to keep their head above water. Test drugs were suspended in 3% Tween 80 solution, and administered orally (po) 60 min before the testing.

Take `Cc1cccc(N2CCN(CC(O)CNc3ncnc4c3ncn4-c3ccc4c(c3)OCCO4)CC2)c1C` (stereo not drawn) [Example 42, 1-(9-(2,3-dihydrobenzo[b][1,4]dioxin-6-yl)-9H-purin-6-ylamino)-3-(4-(2,3-dimethylphenyl)piperazin-1-yl)propan-2-ol]: the IC50 worked out at 40 nM in experiment [1] (setting [4]), 8 nM in experiment [2] (setting [5]) and 560 nM in experiment [3] (setting [6]). In addition, the “Immobility in forced swimming test” value in the experiment on mice (25 mg/kg po) was found to be 86.65 ± 6.40%.

Regarding `CCc1nc2c(NCCCN3CCN(c4cccc(C)c4C)CC3)ncnc2n1-c1ccc2c(c1)OCCO2` [Example 45, 9-(2,3-dihydrobenzo[b][1,4]dioxin-6-yl)-N-(3-(4-(2,3-dimethylphenyl)piperazin-1-yl)propyl)-8-ethyl-9H-purine-6-amine], the values for the IC50 in experiment [1] (setting [4]), in experiment [2] (setting [5]) and in experiment [3] (setting [6]) were 14 nM, 49 nM and 151 nM, respectively. Further, the “Immobility in forced swimming test” value with mice (25 mg/kg po) is 97.64 ± 7.25%.

Take `Cc1cccc(N2CCN(CC(O)CNc3ncnc4c3nc(C)n4-c3ccc4c(c3)OCO4)CC2)c1C` (stereo not drawn) [Example 35, 1-(9-(benzo[d][1,3]dioxol-5-yl)-8-methyl-9H-purin-6-ylamino)-3-(4-(2,3-dimethylphenyl)piperazin-1-yl)propan-2-ol]: the IC50 in experiment [1] (setting [4]) was determined as 106 nM; in experiment [2] (setting [5]), 27 nM; in experiment [3] (setting [6]) it was 789 nM. Also, the “Immobility in forced swimming test” value in the experiment with mice (25 mg/kg po) came out at 87.36 ± 6.89%.

Regarding `Cc1cccc(N2CCN(CCCNc3ncnc4c3nc(-c3ccccc3)n4-c3ccccc3)CC2)c1C` [Example 2, N-(3-(4-(2,3-dimethylphenyl)piperazin-1-yl)propyl)-8,9-diphenyl-9H-purine-6-amine], the IC50 in experiment [1] (setting [4]) was 32 nM; in experiment [2] (setting [5]) it was 75 nM; in experiment [3] (setting [6]), 163 nM. For the same compound, the entries for the “Immobility in forced swimming test” value in the experiment on mice (25 mg/kg po) and in the experiment on mice (50 mg/kg po) were 58.34 ± 11.05% and 47.13 ± 10.41%, respectively.

With `Cc1cccc(N2CCN(CCNc3ncnc4c3nc(-c3cccs3)n4-c3ccccc3)CC2)c1C.Cl` [Example 91, N-(2-(4-(2,3-dimethylphenyl)piperazin-1-yl)ethyl)-9-phenyl-8-(thiophen-2-yl)-9H-purine-6-amine hydrochloride], the IC50 in experiment [1] (setting [4]) amounted to 28 nM; in experiment [2] (setting [5]), 316 nM; in experiment [3] (setting [6]) it was 141 nM. Further, the “Immobility in forced swimming test” value with mice (25 mg/kg po) stood at 89.19 ± 9.17%.

Regarding `CCc1nc2c(NCCCN3CCN(c4cccc(C)c4C)CC3)ncnc2n1-c1ccc(F)cc1` [Example 51, N-(3-(4-(2,3-dimethylphenyl)piperazin-1-yl)propyl)-8-ethyl-9-(4-fluorophenyl)-9H-purine-6-amine], the figures for the IC50 in experiment [1] (setting [4]), in experiment [2] (setting [5]) and in experiment [3] (setting [6]) were 66 nM, 19 nM and 423 nM, respectively. Besides, in the experiment on mice (25 mg/kg po), the “Immobility in forced swimming test” value stood at 99.44 ± 10.28%.

As for `Cc1cccc(N2CCN(CCCNc3ncnc4c3nc(-c3ccccc3)n4C)CC2)c1C` [Example 23, N-(3-(4-(2,3-dimethylphenyl)piperazin-1-yl)propyl)-9-methyl-8-phenyl-9H-purine-6-amine], the IC50 in experiment [1] (setting [4]) was 36 nM; in experiment [2] (setting [5]), 106 nM; in experiment [3] (setting [6]) it was 76 nM. Also, the “Immobility in forced swimming test” value with mice (25 mg/kg po) turned out to be 99.59 ± 6.34%.

Consider `CCc1nc2c(NCCCN3CCN(c4cccc(C)c4C)CC3)ncnc2n1-c1ccc2c(c1)OCO2` [Example 39, 9-(benzo[d][1,3]dioxol-5-yl)-N-(3-(4-(2,3-dimethylphenyl)piperazin-1-yl)propyl)-8-ethyl-9H-purine-6-amine], for which the IC50 in experiment [1] (setting [4]) is 33 nM; in experiment [2] (setting [5]) it was 21 nM; in experiment [3] (setting [6]), 328 nM. In addition, in the experiment with mice (25 mg/kg po), the “Immobility in forced swimming test” value is 88.94 ± 5.41%.

In the case of `Cc1cccc(N2CCN(CCCNc3ncnc4c3nc(C)n4-c3ccc(Cl)cc3)CC2)c1C` [Example 70, 9-(4-chlorophenyl)-N-(3-(4-(2,3-dimethylphenyl)piperazin-1-yl)propyl)-8-methyl-9H-purine-6-amine], the results for the IC50 in experiment [1] (setting [4]), in experiment [2] (setting [5]) and in experiment [3] (setting [6]) were 54.3 nM, 43.8 nM and 316 nM, respectively. The “Immobility in forced swimming test” value worked out at 80.67 ± 12.19% in the experiment with mice (25 mg/kg po) and 53.34 ± 10.82% in the experiment on mice (50 mg/kg po).

With `Cc1cccc(N2CCN(CCCNc3ncnc4c3nc(C)n4-c3ccc(F)cc3)CC2)c1C` [Example 49, N-(3-(4-(2,3-dimethylphenyl)piperazin-1-yl)propyl)-9-(4-fluorophenyl)-8-methyl-9H-purine-6-amine], the values for the IC50 in experiment [1] (setting [4]), in experiment [2] (setting [5]) and in experiment [3] (setting [6]) were 47 nM, 62 nM and 364 nM, respectively. In the experiment on mice (25 mg/kg po), the “Immobility in forced swimming test” value is reported as 81.07 ± 7.11%.

Turning to `CCc1nc2c(NCCN3CCN(c4cccc(C)c4C)CC3)ncnc2n1-c1ccccc1` [Example 10, N-(2-(4-(2,3-dimethylphenyl)piperazin-1-yl)ethyl)-8-ethyl-9-phenyl-9H-purine-6-amine], the IC50 came out at 11 nM in experiment [1] (setting [4]), 161 nM in experiment [2] (setting [5]) and 106 nM in experiment [3] (setting [6]). Further, the “Immobility in forced swimming test” value stood at 74.56 ± 14.08% with mice (25 mg/kg po) and 80.58 ± 11.21% with mice (50 mg/kg po).

Take `Cc1cccc(N2CCN(CCCNc3ncnc4c3nc(C)n4-c3ccc4c(c3)OCCO4)CC2)c1C` [Example 43, 9-(2,3-dihydrobenzo[b][1,4]dioxin-6-yl)-N-(3-(4-(2,3-dimethylphenyl)piperazin-1-yl)propyl)-8-methyl-9H-purine-6-amine]: the IC50 in experiment [1] (setting [4]) came out at 14 nM; in experiment [2] (setting [5]), 16 nM; in experiment [3] (setting [6]) it was 118 nM. Further, the “Immobility in forced swimming test” value in the experiment with mice (25 mg/kg po) amounted to 81.26 ± 11.85%.

With `CCc1nc2c(NCCN3CCN(c4cccc(C)c4C)CC3)ncnc2n1-c1ccc(SC)cc1.Cl` [Example 87, N-(2-(4-(2,3-dimethylphenyl)piperazin-1-yl)ethyl)-8-ethyl-9-(4-(methylthio)phenyl)-9H-purine-6-amine hydrochloride], the IC50 in experiment [1] (setting [4]) stood at 9.3 nM; in experiment [2] (setting [5]) it was 136 nM; in experiment [3] (setting [6]), 100 nM. Also, the “Immobility in forced swimming test” value with mice (25 mg/kg po) is given as 88.26 ± 6.05%.

On to `Cc1cccc(N2CCN(CCNc3ncnc4c3nc(C)n4-c3ccc(F)cc3)CC2)c1C` [Example 55, N-(2-(4-(2,3-dimethylphenyl)piperazin-1-yl)ethyl)-9-(4-fluorophenyl)-8-methyl-9H-purine-6-amine], for which the IC50 in experiment [1] (setting [4]) was determined as 31.1 nM; in experiment [2] (setting [5]), 518 nM; in experiment [3] (setting [6]), 129 nM. Further, the “Immobility in forced swimming test” value in the experiment with mice (25 mg/kg po) is 70.53 ± 11.73%; with mice (50 mg/kg po), 78.41 ± 8.11%.

In the case of `Cc1cccc(N2CCN(CC(O)CNc3ncnc4c3nc(C(C)(C)C)n4C)CC2)c1C` (stereo not drawn) [Example 38, 1-(8-tert-butyl-9-methyl-9H-purin-6-ylamino)-3-(4-(2,3-dimethylphenyl)piperazin-1-yl)propan-2-ol], the values for the IC50 in experiment [1] (setting [4]), in experiment [2] (setting [5]) and in experiment [3] (setting [6]) were 404 nM, 19 nM and 1590 nM, respectively. The figures for the “Immobility in forced swimming test” value in the experiment with mice (25 mg/kg po) and in the experiment on mice (50 mg/kg po) were 74.86 ± 9.75% and 64.14 ± 10.74%, respectively.

As to `Clc1cccc(N2CCN(CCCNc3ncnc4c3nc(-c3ccccc3)n4-c3ccccc3)CC2)c1Cl` [Example 1, N-(3-(4-(2,3-dichlorophenyl)piperazin-1-yl)propyl)-8,9-diphenyl-9H-purine-6-amine], the figures for the IC50 in experiment [1], in experiment [2] and in experiment [3] were 14 nM, 64 nM and 86 nM, respectively. Besides, in the experiment on mice (50 mg/kg po), the “Immobility in forced swimming test” value amounted to 41.79%.
